Laboratory results reported in patent US6399634B1, “Benzothiophene compounds, compositions, and methods” (Eli Lilly and Company, priority 1994, dated 2002).

Tested on: Uterine Eosinophil Peroxidase (EPO)
Experiment: Uterine Eosinophil Peroxidase (EPO) Assay on uteri of dosed OVX rats
Type: in vivo, Sprague Dawley rats
Conditions: ovariectomized rats

## C[C@]12CC[C@@H]3c4ccc(O)cc4CC[C@H]3[C@@H]1CC[C@@H]2O [estradiol]
  Eosinophil infiltration into the uterus (number of eosinophils in the stromal layer, in words): substantial, expected increase in eosinophil infiltration
